These are literature values, as cited in paper PMC3527451, “A Pilot Randomized, Placebo Controlled, Double Blind Phase I Trial of the Novel SIRT1 Activator SRT2104 in Elderly Volunteers” (PLoS ONE, 2012).

The subject of this data set is DIO mice and ob/ob mice. The settings on record: e.g. DIO and Lep ob/ob obese mice; cited from earlier work.

Take `Oc1ccc(/C=C/c2cc(O)cc(O)c2)cc1` [resveratrol, reference compound]: the “cholesterol, LDL and triglycerides in preclinical models of dyslipidemia, diabetes and obesity” value is “lower cholesterol, LDL and triglycerides”.
